pIC50: −log10 of the molar value.
Legend:
VCaP tumor xenograft [1] = experiment: VCaP tumor xenograft study in intact (non-castrated) mice; type: in vivo, mouse; conditions: enzalutamide 20 mg/kg orally QD for 21 days
Description: To mimic higher androgen levels found in an incomplete testosterone suppression environment, intact (non-castrated) mice were employed for a VCaP tumor xenograft study.

PSA = experiment: intracellular PSA ELISA in VCaP cells; type: cell-based; conditions: Homo sapiens, CSS + 0.1 nM R1881, 48 hours, read-out: IC50, inhibiting PSA expression
Method: Intracellular prostate specific antigen (PSA) levels were determined using a PSA enzyme-linked immunosorbent assay (ELISA). […] The cell proliferation was determined using the CellTiter-Glo® assay. […] The CaspaseGlo® assay was carried out to measure the level of apoptosis in cells.
To evaluate the pharmacological effect of Compound A in vitro, PSA, cell proliferation, and apoptosis assays were carried out in VCaP cells.

prostate = experiment: 10-day prostate involution study in rats; type: in vivo, rat; conditions: enzalutamide 100 mg/kg/day orally, 10 days, intact rats
Method: Enzalutamide and Compound A were orally administered once daily at the indicated doses. After 10 days of treatment, the prostate tissue from each rat was isolated and weighed. Treatment groups (n=5 per group) were compared by one way ANOVA. Note: ns: not significant, *: p<0.05, **: p≤0.01.
To substantiate the on-target mechanism of Compound A, a prostate involution study was conducted in rats. […] Twenty-four hours after the last dose, the rats were euthanized, and the prostate organs were isolated and weighed.

VCaP tumor xenograft [2] = conditions: cited from earlier work
cereblon = cereblon (Homo sapiens, UniProt Q96SW2); conditions: pomalidomide 10 μM
cereblon, sequence (Q96SW2 whole entry): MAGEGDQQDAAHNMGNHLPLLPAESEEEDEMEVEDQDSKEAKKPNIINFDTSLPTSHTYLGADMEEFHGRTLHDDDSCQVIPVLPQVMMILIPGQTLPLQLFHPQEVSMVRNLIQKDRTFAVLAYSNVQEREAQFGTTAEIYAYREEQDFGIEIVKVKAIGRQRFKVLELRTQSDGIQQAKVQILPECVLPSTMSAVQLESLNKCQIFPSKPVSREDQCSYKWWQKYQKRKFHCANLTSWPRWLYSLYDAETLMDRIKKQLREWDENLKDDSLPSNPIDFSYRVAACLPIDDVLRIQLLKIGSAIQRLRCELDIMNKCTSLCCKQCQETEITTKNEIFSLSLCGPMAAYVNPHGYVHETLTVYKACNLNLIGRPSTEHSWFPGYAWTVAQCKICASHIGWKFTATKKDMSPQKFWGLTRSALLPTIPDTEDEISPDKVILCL

| SMILES | tumor growth inhibition (TGI) (VCaP tumor xenograft [1]) [%] | pIC50 (PSA) | Mean (±SEM) prostate weights (prostate) [mg] | activity in the intact VCaP setting (published data) (VCaP tumor xenograft [2]) | effect on Compound A mediated AR degradation (cereblon) |
| --- | --- | --- | --- | --- | --- |
| CNC(=O)c1ccc(N2C(=S)N(c3ccc(C#N)c(C(F)(F)F)c3)C(=O)C2(C)C)cc1F [enzalutamide, reference compound] | 27 | 6.76 | 818 ± 170 | very modest activity, or no activity at all | – |
| Nc1cccc2c1C(=O)N(C1CCC(=O)NC1=O)C2=O (centres unmarked) [pomalidomide] | – | – | – | – | blocked Compound A mediated degradation |

— US20240180900A1, “COMPOUNDS AND METHODS FOR THE TARGETED DEGRADATION OF ANDROGEN RECEPTOR” (Arvinas Operations, Inc., priority 2022, published 2024)
